The values below come from patent US20050100983A1, “Cell-free methods for identifying compounds that affect toll-like receptor 9 (TLR9) signaling” (Coley Pharmaceutical GmbH, priority 2003, published 2005).

Data set [1] relates to murine TLR9. Kind of data set: NF-κB luciferase assay, HEK 293 cells transfected with murine TLR9. It is filed as cell-based. The conditions noted are these: TLR9-transfected HEK 293 cells, 1 μM CpG-DNA, inhibitor added 15 min prior to stimulation. The protocol: Activation is expressed as fold induction compared to no stimulation. NF-κB luciferase assay. For monitoring transient NF-κB activation, 3×10^6 HEK 293 cells were electroporated at 200 volt and 950 μF with 20 ng of a NF-κB luciferase reporter plasmid (kindly provided by Patrick Baeuerle, Munich, Germany) and 1 μg mTLR2 (kindly provided by Tularik, Inc., South San Francisco, USA), mTLR9, or mTLR9-mut expression plasmid. Cells were seeded at 10^5 cells per well and after overnight culture stimulated with 1 μM phosphorothioated CpG-DNA 1668 (SEQ ID NO:1), 1 μM non-CpG-DNA 1668GC (SEQ ID NO:3), 1 μg/ml Pam[…][…] or 1 μg/ml PHCK4 for further 8 hours. […] Stimulated cells were lysed using reporter lysis buffer (Promega, Mannheim, Germany) and lysates were assayed for luciferase activity using a Berthold luminometer (Wildbad, Germany) according to the manufacturer's instruction.

In data set [2] the test system is murine TLR2. Kind of data set: NF-κB luciferase assay, HEK 293 cells transfected with murine TLR2. The class given is cell-based. The conditions noted are these: TLR2-transfected HEK 293 cells, 1 μg/ml Pam3Cys.
Data set [3] deals with T1, TLR9-CpG-DNA interaction (Mus musculus, UniProt Q9EQU3).
T1 construct: mTLR9ect (aa 1-816); made in house
T1 sequence (Q9EQU3 26-816): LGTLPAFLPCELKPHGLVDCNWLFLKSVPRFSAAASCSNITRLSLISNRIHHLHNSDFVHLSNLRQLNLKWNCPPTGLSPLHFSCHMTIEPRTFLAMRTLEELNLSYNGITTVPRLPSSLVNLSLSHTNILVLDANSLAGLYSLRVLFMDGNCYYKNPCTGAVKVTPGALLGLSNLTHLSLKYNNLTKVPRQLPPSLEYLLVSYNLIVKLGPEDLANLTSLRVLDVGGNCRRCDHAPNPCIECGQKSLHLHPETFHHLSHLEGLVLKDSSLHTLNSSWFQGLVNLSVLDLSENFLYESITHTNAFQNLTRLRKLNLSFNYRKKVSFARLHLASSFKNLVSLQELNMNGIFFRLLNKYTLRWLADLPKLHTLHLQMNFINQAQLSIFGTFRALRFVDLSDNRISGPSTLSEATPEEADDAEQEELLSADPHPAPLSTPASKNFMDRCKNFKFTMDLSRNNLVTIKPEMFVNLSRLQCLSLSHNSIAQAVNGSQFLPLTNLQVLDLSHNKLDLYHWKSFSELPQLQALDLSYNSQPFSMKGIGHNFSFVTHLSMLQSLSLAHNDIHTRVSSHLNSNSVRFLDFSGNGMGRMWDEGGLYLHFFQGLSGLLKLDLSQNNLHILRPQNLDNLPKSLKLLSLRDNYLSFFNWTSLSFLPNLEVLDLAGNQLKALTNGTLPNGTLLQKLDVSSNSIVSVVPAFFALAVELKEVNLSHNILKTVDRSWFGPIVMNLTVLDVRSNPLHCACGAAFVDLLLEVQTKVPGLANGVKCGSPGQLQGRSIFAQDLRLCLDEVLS
Kind of data set: SPR biosensor analysis of inhibitors on TLR9-CpG-DNA interaction. It is filed as binding, murine. To be noted: for inhibition of binding of TLR9 to CpG-DNA: SPR, 200 nM TLR9, immobilized CpG-DNA 1668. As for the experimental part: Biotinylated CpG-DNA 1668 (SEQ ID NO:1) and non-CpG-DNA 1668GC (SEQ ID NO:3) were immobilized on streptavidin sensor chip flow cells 1 and 2, respectively.
FIG. 2B is a graph depicting SPR biosensor analysis of quinoquine (QC) on TLR9-PAMP interaction. Biotinylated CpG-DNA 1668 (SEQ ID NO:1) and non-CpG-DNA 1668GC (SEQ ID NO:3) were immobilized on streptavidin sensor chip flow cells 1 and 2, respectively. 200 nM TLR9 and indicated concentrations of quinoquine were injected and sensorgrams recorded.
(§1) SPR biosensor analysis. Real-time binding of TLR9 or TLR2 was measured by surface plasmon resonance biosensor technology using the BiaCore X system (Uppsala, Sweden). For analysis of TLR9 and TLR2 interaction, biotinylated CpG-DNA and non-CpG-DNA, or biotinylated Pam3CysK4 and PHCK4, respectively, were loaded in running buffer (50 mM MES, 150 mM NaCl, 1 mM MgCl2 at pH 6.5) on SA chips precoated with streptavidin (Biacore AB, Uppsala, Sweden). Non-CpG-DNA or PHCK4 (Wiesmuller K H et al. (1989) Vaccine 7:29-33) served as reference for CpG-DNA and Pam3CysK4 interaction (structure or sequence in Table 1). […] TLR proteins were introduced at 200 nM or as indicated in 40 μl running buffer at a flow rate of 10 μl/min. Binding was measured at 25° C. for 750 s (delay time 300 s). […] Sensorgrams were recorded and kinetic data were calculated by the BiaCore Evaluation program (Biacore, version 3.0.1). Regeneration of the chip was performed by injection of 10 μl 50 mM NaOH, 1 M NaCl and extensive re-equilibration.
(In general: In SPR one partner is held on a chip, and binding of the other changes the refractive index at the surface.)

Data set [4] deals with T2, mTLR2ect (TLR2-Pam3Cys interaction) (Mus musculus, UniProt Q9QUN7).
T2 construct: mTLR2ect (aa 1-587); made in house
T2 sequence (Q9QUN7 25-587): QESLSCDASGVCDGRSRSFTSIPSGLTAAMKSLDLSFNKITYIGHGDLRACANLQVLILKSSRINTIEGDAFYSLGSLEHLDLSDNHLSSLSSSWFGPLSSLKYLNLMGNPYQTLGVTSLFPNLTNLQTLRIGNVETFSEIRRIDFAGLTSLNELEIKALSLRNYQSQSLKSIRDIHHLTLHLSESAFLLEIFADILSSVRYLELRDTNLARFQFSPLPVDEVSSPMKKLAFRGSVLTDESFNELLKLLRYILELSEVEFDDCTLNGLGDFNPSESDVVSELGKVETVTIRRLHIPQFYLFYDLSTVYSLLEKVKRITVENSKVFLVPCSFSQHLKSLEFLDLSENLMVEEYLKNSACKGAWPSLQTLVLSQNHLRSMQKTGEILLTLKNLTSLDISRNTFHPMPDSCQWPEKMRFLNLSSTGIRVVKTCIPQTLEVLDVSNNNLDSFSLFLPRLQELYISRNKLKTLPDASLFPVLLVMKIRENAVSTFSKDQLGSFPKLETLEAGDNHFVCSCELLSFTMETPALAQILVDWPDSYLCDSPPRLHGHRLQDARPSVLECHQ
Kind of data set: SPR biosensor analysis of TLR2-Pam3Cys binding. More on the design: species or system murine. The conditions noted are these: 200 nM TLR2, immobilized Pam3Cys, PHC as reference.

For data set [5], the target named is T3, mTLR9ect (extracellular domain of murine TLR9 fused to human IgG1-Fc) (Mus musculus, UniProt Q9EQU3).
T3 construct: mTLR9ect (aa 1-816); made in house
T3 sequence (Q9EQU3 26-816): T1 sequence (Q9EQU3 26-816)
Kind of data set: SPR biosensor analysis of mTLR9ect binding to immobilized CpG-DNA.
Excerpt: Protein. Recombinant fusion proteins consisting of the extracellular domain of Toll-like receptors mTLR9ect (aa 1-816), mTLR9ect-mut (see below) (aa 1-816), hTLR9ect (aa 1-815) and mTLR2ect (aa 1-587) fused to human IgG1-Fc were constructed by amplifying the corresponding extracellular domain and ligating the fragment in frame into a pcDNA3.1(−) (Invitrogen, Netherlands) vector containing the coding sequence for human IgG1-Fc. Fusion proteins were stably expressed in HEK 293 cells and purified from cell lysates by protein A affinity chromatography.
as §1
For detailed analysis of TLR9-CpG-DNA interaction, surface plasmon resonance (SPR) biosensor based technology was used with CpG- and non-CpG-DNA immobilized onto separate flow cells of a streptavidin-coated chip. Under these settings non-CpG-DNA served as reference for specific binding (see Methods). Binding of mTLR9ect to DNA was CpG-sequence-specific and increased in a dose-dependent manner. […] Using the 1:1 binding model of the BioEvaluation software as fitting algorithm and on the basis of four different mTLR9ect concentrations ranging from 50 to 300 nM, a dissociation constant (Kd) of 200 nM was obtained with low chi-squared residuals (4,76). […] Weber AN et al. (2003) Nat. Immunol. 4:794-800. Furthermore the concentration of CpG-DNA 1668 (SEQ ID NO:1) for half-maximal activation of murine TLR9 has been recently calculated as 70 nM which correlates well with the KD obtained here. Bauer S et al. (2001) Proc. Natl. Acad. Sci. U.S.A. 98:9237-9242. […] This difference in affinity correlates with the observed species-specific variance in CpG-motif recognition, as well as activation potential. Bauer S et al. (2001) Proc. Natl. Acad. Sci. U.S.A. 98:9237-9242.

Data set [6] concerns the target T4, mTLR9ect (Mus musculus, UniProt Q9EQU3).
T4 construct: mTLR9ect (aa 1-816); made in house
T4 sequence (Q9EQU3 26-816): T1 sequence (Q9EQU3 26-816)
Kind of data set: UV-crosslinking of mTLR9ect with 32P-labeled DNA and SDS-PAGE. It is filed as binding, murine. The conditions noted are these: SDS-PAGE, complex at 150 kDa. An excerpt:
FIG. 1B is an image of an SDS-PAGE gel depicting purified proteins from FIG. 1A UV-crosslinked with ^32P-labeled CpG- or non-CpG-DNA, separated by SDS-PAGE, and autoradiographed. TLR9 and free DNA are highlighted.
Bauer S et al. (2001) Proc. Natl. Acad. Sci. U.S.A. 98:9237-9242. To assess binding of TLR9 to CpG-DNA, a recombinant fusion protein consisting of the extracellular domain of murine TLR9 and human IgG 1-Fc (mTLR9ect) was constructed. The extracellular domain of murine TLR2 also fused to IgG1-Fc (mTLR2ect) served as control. Proteins were expressed in HEK 293 cells and purified via protein A affinity chromatography (FIG. 1A). Under denaturing and non-reducing conditions mTLR9ect and mTLR2ect are approximately 10% in a monomeric and 90% in a dimeric form. Dimerization of the proteins is probably mediated by the IgG 1-Fc fusion partner which forms disulfide bonds (FIG. 1A). Initially, binding of mTLR9ect to radiolabeled DNA was determined by UV-crosslinking and subsequent SDS-PAGE.

With `CCN(CC)CCCC(C)Nc1ccnc2cc(Cl)ccc12` (centres unmarked) [chloroquine], in data set [1], the “inhibition of TLR9-driven NF-κB activation” value is “dose-dependently inhibit”. Besides, in data set [2], the “inhibition of Pam3Cys-driven cellular activation” value is on record as “inhibited neither”. In addition, the “inhibition of binding of TLR9 to CpG-DNA” value in data set [3] is given as “dose-dependently inhibit”.

Take `CCN(CC)CCCC(C)Nc1c2ccc(Cl)cc2nc2ccc(OC)cc12` (centres unmarked) [quinacrine]: in data set [1], the “inhibition of TLR9-driven NF-κB activation” value was “dose-dependently inhibit”. For the same compound, the “inhibition of Pam3Cys-driven cellular activation” value in data set [2] is recorded as “inhibited neither”. Also, the “inhibition of TLR2-Pam3Cys binding” value in data set [4] is listed as “inhibited neither”. Besides, in data set [3] (SPR and TLR9-transfected HEK 293 cells), the “potency in blocking TLR9-CpG-DNA interaction and cellular activation, compared with chloroquine” value is recorded as “more potent”. Besides, in data set [3], the “inhibition of binding of TLR9 to CpG-DNA” value is “dose-dependently inhibit”.

In the case of “5′-TCCATGAGCTTCCTGATGCT-3′ (chemistry not given here) [non-CpG-DNA 1668GC, non-CpG control oligodeoxynucleotide]”, the “release of bound mTLR9ect by free injected DNA” value in data set [5] (competition, free DNA added in dissociation phase) is reported as “did not lead to the release”. For the same compound, the “effect of pre-incubation of mTLR9ect with DNA on binding to chip-immobilized CpG-DNA” value in data set [5] (pre-incubation prior to SPR analysis) was “no inhibitory effect”. In data set [6], the “binding of mTLR9ect to radiolabeled DNA” value was “bound only weakly”.
